From PMC8631675, “Neuroprotective effects of some epigenetic modifying drugs’ on Chlamydia pneumoniae-induced neuroinflammation: A novel model” (PLoS ONE, 2021)
Like-named read-outs stand apart in the source and are kept apart here.

How the values were obtained:
SH-SY5Y cells = assay: Total ROS/Superoxide detection; type: cell-based, human; conditions: for Increase of total amount of ROS compared to the control group, with NAC: 30 minutes NAC 5 mM, treated (drugs 100 nM; LPS 100 ng/ml; CFS 1 μg/ml, with IFN-γ) prior to Aβ exposure
Description: The Total ROS/Superoxide Detection Kit (ENZ-51010, Enzo) was used according to the kit process for evaluating the protective effects of the treatment groups on SH-SY5Y cells seeded at a 2x10^4 density per well in 96-well plates and Aβ was applied. ROS inhibitor N-acetyl cysteine (NAC) was applied at 5 mM concentration to negative control groups 30 minutes before the experiment and after incubation, 100 μL of “ROS/Superoxide Detection Solution” was added to the wells in the kit. The same procedure was done without the application of ROS inhibitor. Fluorometric analysis of stained cells was analyzed with Cytation 3 Cell Imaging Multi-Mode Reader (BioTek) using 490/525 nm and 550/620 nm filter sets.

[1] = tested on: differentiated SH-SY5Y cells; assay: Annexin V-PI staining of Aβ-induced cell death, flow cytometry; type: cell-based, human; conditions: pretreatment (drugs 100 nM; LPS 100 ng/ml + IFN-γ; CFS 1 μg/ml + IFN-γ) + 5 μM Aβ 24 h; for Necrotic effect (Q5-UL): control 1.6%; for Apoptotic effect (early apoptosis + late apoptosis): control 1.9%; for Percentage of living cells (Live): control 96.5%
Description: To determine neuronal apoptosis associated with Aβ exposure, 25x10^3 differentiated SH-SY5Y cells were seeded in 24-well plates and Aβ was applied. After 24 h, cells were trypsinized and staining was performed according to the CF 488A Annexin V and PI Apoptosis Kit (Biotium, USA, Cat. No: 30061) protocol. After washing the cells with 1xPBS, the working solution was prepared by diluting the PI with Annexin V binding buffer included in the kit. 5 μl Annexin V and 2 μl PI working solution were added to the centrifuge tubes and binded with 100 μl Annexin V binding buffer. After the samples were incubated for 30 minutes on ice and in the dark, 400 μl of Annexin V binding buffer was added to each tube and the samples were measured and analyzed in a BD Accuri™ C6 flow cytometry device.

[2] = tested on: differentiated SH-SY5Y cells; assay: Cell proliferation (cytotoxicity) analysis with xCELLigence, SH-SY5Y; type: cell-based, human
Description: (§1) Cell proliferation analysis was performed with xCELLigence Real-Time Cell Analysis System to assess TSA, RG108, givinostat, and rifampin concentrations for use in both models. Differentiated SH-SY5Y and HMC3 microglia cells were seeded at a 5x10^3 density per well and incubated 24 h until CI values reached a log phase. The system stopped at the end of 24 h, 100, 10 and 1 μM TSA, givinostat, RG108 and rifampin were applied on current media and the cell viability was tracked. […] Simultaneously, slope plots were drawn using the CI values at 24 and 48 hours, and the statistical significance of the values discovered by assuming the average CI values of the control wells to be 100% was calculated.

motor neurons = tested on: motor neurons; design: method as in PMID 23900692; conditions: inhibiting DNMT catalytic activity; cited from earlier work
HMC3 microglia cells = assay: Cell proliferation (cytotoxicity) analysis with xCELLigence, HMC3; type: cell-based, human
Description: as §1

[3] = tested on: differentiated SH-SY5Y cells; assay: Cell viability against Aβ-induced neurotoxicity, xCELLigence; type: cell-based, human; conditions: 24 h pretreatment (drugs 100 nM; CFS 1 μg/ml + IFN-γ; LPS 100 ng/ml + IFN-γ), then 5 μM Aβ (1–42) aggregates 24 h
Description: Pathological deterioration in AD is mainly associated with overproduction of the Aβ peptide and the Aβ (1–42) variant is the toxic form that is more predominant in Alzheimer’s patients. In this study, a modified oligomeric Aβ (1–42) neurotoxicity analysis protocol was applied in order to elucidate the effects of treatment groups on SH-SY5Y cell viability in the presence of Aβ [56]. In order to model Aβ-induced neurotoxicity in vitro, an oligomeric form of the Aβ1–42 peptide was prepared by diluting with ice-cold Ham’s F12 Nutrient Mixture medium dissolved in PBS containing 0.02 M NaOH at a final concentration of 50 μM and kept in a 37°C incubator for 7 days to form peptide aggregates prior to the experiments. 5x10^3 SH-SY5Y cells were differentiated inside the xCELLigence instrument for 5 days and treated with 100 nM TSA, RG108, givinostat, rifampin; 100 ng/ml LPS+IFN-ɣ or 1 μg/ml CFS+IFN-ɣ for 24 h in order to evaluate neuroprotection. The co-culture was performed in the same way as the neuroinflammation model. Neurotoxicity was obtained instead of neuroinflammation by diluting to 5 μM with fresh medium and adding Aβ1–42 aggregates to the wells for 24 h in 100 μl of medium. Cell viability data was then monitored for 24 h and analyzed within the instrument.

mutated COS-7 cells = tested on: mutated COS-7 cells; design: method as in PMID 27020329; conditions: mutated COS-7 cells expressing amyloid precursor protein; cited from earlier work
[4] = tested on: low density lipoprotein receptor-related protein 1 (LRP-1) and P-glycoprotein (P-gp); design: method as in PMID 22504320; conditions: by upregulating LRP-1 and P-gp; cited from earlier work
IL-8 gene expression = assay: RT-PCR IL-8 gene expression in HMC3 microglia cells; type: cell-based, human; conditions: 24 h
Description: (§2) LPS and/or proinflammatory cytokines like IFN-ɣ, have been used alone or in combination in most in vitro neuroinflammation models to study microglial activation. Therefore, the effects of lyophilized cell free supernatant (CFS)+IFN-ɣ combination, which was determined to increase IL-1β and CD218a cytokine levels most effectively, on IL-1β, TNF-α and IL-8 gene expressions were compared with LPS+IFN-ɣ combination in order to determine the activation concentration.
(§3) RNA isolations were performed in MagNA Pure Compact System (Roche, Germany) using MagNA Pure Compact RNA Isolation Kit® (Catalog No: 04802993001, Roche, Germany) after 24-h. The total RNA amounts of the samples were measured at 260 and 280 nm in the NanoDrop 2000® (Thermo Fisher, USA) spectrophotometer. cDNA was obtained using the Transcriptor High Fidelity cDNA Synthesis Kit® (Catalog no: 05091284001, Roche, Germany) following the kit protocol from […] RNA of each sample. After the cDNA samples were replicated by PCR method, the expression levels were determined with the LightCycler® 480 Real-Time PCR System (Roche, Germany) using the IL-1β, TNF-α and IL-8 primers (PRZ BioTech, Turkey). Actin beta (ACTB) was used as a housekeeping gene. Primer sequences and RT-PCR cycling conditions are shown in S1 and S2 Tables. Results were analyzed according to the changes in the amplification levels compared to the control group with the analysis software of the instrument.

TNF-α gene expression = assay: RT-PCR TNF-α gene expression in HMC3 microglia cells; type: cell-based, human; conditions: 24 h
Description: as §2, §3

SH-SY5Y cell = tested on: SH-SY5Y cell; design: method as in PMID 31837307, PMID 32087283; conditions: LPS alone; cited from earlier work
IL-1β gene expression = assay: RT-PCR IL-1β gene expression in HMC3 microglia cells; type: cell-based, human; conditions: 24 h
Description: as §2, §3

CD11b = assay: Active microglia marker CD11b in HMC3 cells by flow cytometry; type: cell-based, human; conditions: 24 hours, control 10.1%
Description: HMC3 microglia cells were seeded in 12-well plates at a density of 75x10^3 cells per well and treated with treatment groups for 24 h. Then, cells were detached and centrifuged with Cell Staining Buffer (BioLegend, USA, Cat. No: 420201) for 5 minutes and the supernatant was discarded. Blocking was performed with 5 μl Human TruStain Fcx (BioLegend, USA, Cat. No: 422302) Fc receptor blocker solution diluted in 100 μl Cell Staining Buffer for 10 minutes at room temperature to reduce non-specific binding. The blocker was removed by centrifugation and the cells were stained with 5 μl PE anti-mouse/human CD11b Antibody (BioLegend, USA, Cat. No: 101208) diluted 1:5 in 20 μl Cell Staining Buffer for 15 minutes on ice in the dark. Then, the cells were washed 2 times with 2 ml Cell Staining Buffer and analyzed within 500 μl buffer using the BD Accuri ™ C6 flow cytometer.

[5] = cells treated (drugs 100 nM; LPS 100 ng/ml; CFS 1 μg/ml, with IFN-γ) before exposure to Aβ, without NAC
[6] = HMC3, 10 ng/ml + 10 ng/ml IFN-ɣ
[7] = HMC3, 100 ng/ml + 10 ng/ml IFN-ɣ

O=C(O)C(Cc1c[nH]c2ccccc12)N1C(=O)c2ccccc2C1=O (stereo not drawn) [RG108]
Increase of total amount of ROS compared to the control group, with NAC (SH-SY5Y cells): 4.29%
Decrease of total ROS amount according to the Aβ group (SH-SY5Y cells; [5]): 52.61%
Decrease of total amount of ROS compared to the control group (SH-SY5Y cells; cells treated with compounds (100 nM) before exposure to Aβ, without NAC): 9.03%
Necrotic effect (Q5-UL) [1]: 6.6%
Apoptotic effect (early apoptosis + late apoptosis) [1]: 4.3%
Percentage of living cells (Live) [1]: 89.1%
Reduction of differentiated SH-SY5Y cell viability ([2]; 1 μM, 24 hours): 21.98%
Reduction of differentiated SH-SY5Y cell viability ([2]; 1 μM, 48 hours): 15.47%
Reduction of differentiated SH-SY5Y cell viability ([2]; 10 μM, 24 hours): 43.73%
Reduction of differentiated SH-SY5Y cell viability ([2]; 10 μM, 48 hours): 33.89%
Reduction of differentiated SH-SY5Y cell viability ([2]; 100 μM, 24 hours): 64.03%
Reduction of differentiated SH-SY5Y cell viability ([2]; 100 μM, 48 hours): 53.43%
IC50 ([2]; from CI values at 24th hour, 1, 10 and 100 μM tested, read-out: IC50 Values 24h SH-SY5Y): 1.49 µM
IC50 ([2]; from CI values at 48th hour, 1, 10 and 100 μM tested, read-out: IC50 Values 48h SH-SY5Y): 9.6 µM
Effect on motor neurons (motor neurons): protect motor neurons from excessive DNA methylation and apoptosis
Reduction of HMC3 cell viability compared to the control group (HMC3 microglia cells; 10 μM, 24 hours): 3.12%
Reduction of HMC3 cell viability compared to the control group (HMC3 microglia cells; 10 μM, 48 hours): 8.33%
Reduction of HMC3 cell viability compared to the control group (HMC3 microglia cells; 100 μM, 24 hours): 43.26%
Reduction of HMC3 cell viability compared to the control group (HMC3 microglia cells; 100 μM, 48 hours): 57.56%
IC50 (HMC3 microglia cells; from CI values at 24th hour, 1, 10 and 100 μM tested, read-out: IC50 Values 24h HMC3): > 400 µM
IC50 (HMC3 microglia cells; from CI values at 48th hour, 1, 10 and 100 μM tested, read-out: IC50 Values 48h HMC3): > 400 µM
CI values compared to the control group [3]: 120.7%

CO[C@H]1/C=C/O[C@@]2(C)Oc3c(C)c(O)c4c(O)c(c(/C=N/N5CCN(C)CC5)c(O)c4c3C2=O)NC(=O)/C(C)=C\C=C\[C@H](C)[C@H](O)[C@@H](C)[C@@H](O)[C@@H](C)[C@H](OC(C)=O)[C@@H]1C [Rifampin, rifampin]
Increase of total amount of ROS compared to the control group, with NAC (SH-SY5Y cells): 0.25%
Decrease of total ROS amount according to the Aβ group (SH-SY5Y cells; [5]): 43.14%
Increase of total amount of ROS compared to the control group (SH-SY5Y cells; cells treated (drugs 100 nM; LPS 100 ng/ml; CFS 1 μg/ml, with IFN-γ) before exposure to Aβ, without NAC, not significant): 0.43%
Effect on Aβ, tau, and α-synuclein aggregation (mutated COS-7 cells): minimize Aβ, tau, and α-synuclein aggregation
Necrotic effect (Q5-UL) [1]: 8.1%
Apoptotic effect (early apoptosis + late apoptosis) [1]: 5.8%
Percentage of living cells (Live) [1]: 86.2%
Reduction of differentiated SH-SY5Y cell viability ([2]; 1 μM, 24 hours): 30.28%
Reduction of differentiated SH-SY5Y cell viability ([2]; 1 μM, 48 hours): 17.16%
Reduction of differentiated SH-SY5Y cell viability ([2]; 10 μM, 24 hours): 46.98%
Reduction of differentiated SH-SY5Y cell viability ([2]; 10 μM, 48 hours): 25%
Reduction of differentiated SH-SY5Y cell viability ([2]; 100 μM, 24 hours): 97.24%
Reduction of differentiated SH-SY5Y cell viability ([2]; 100 μM, 48 hours): 98.61%
IC50 ([2]; Homo sapiens, SH-SY5Y, 24 h, from CI values at 24th hour, 1, 10 and 100 μM tested, read-out: IC50 Values 24h SH-SY5Y): > 400 µM
IC50 ([2]; Homo sapiens, SH-SY5Y, 48 h, from CI values at 48th hour, 1, 10 and 100 μM tested, read-out: IC50 Values 48h SH-SY5Y): 64.4 µM
Effect on Aβ clearance [4]: increasing Aβ clearance
Reduction of HMC3 cell viability compared to the control group (HMC3 microglia cells; 10 μM, 24 hours): 12.72%
Reduction of HMC3 cell viability compared to the control group (HMC3 microglia cells; 10 μM, 48 hours): 17.79%
Reduction of HMC3 cell viability compared to the control group (HMC3 microglia cells; 100 μM, 24 hours): 15.74%
Reduction of HMC3 cell viability compared to the control group (HMC3 microglia cells; 100 μM, 48 hours): 28.72%
IC50 (HMC3 microglia cells; Homo sapiens, HMC3, 24 h, from CI values at 24th hour, 1, 10 and 100 μM tested, read-out: IC50 Values 24h HMC3): 33.2 µM
IC50 (HMC3 microglia cells; Homo sapiens, HMC3, 48 h, from CI values at 48th hour, 1, 10 and 100 μM tested, read-out: IC50 Values 48h HMC3): 31 µM
CI values compared to the control group [3]: 120.7%

lipopolysaccharide [LPS]
IL-8 expression level compared to the control group (IL-8 gene expression; [6]): 3.07 fold
IL-8 expression level compared to the control group (IL-8 gene expression; [7]): 3.88 fold
IL-8 expression level compared to the control group (IL-8 gene expression; HMC3, 1 μg/ml + 10 ng/ml IFN-ɣ): 13.64 fold
TNF-α expression level compared to the control group (TNF-α gene expression; [6]): 1.55 fold
TNF-α expression level compared to the control group (TNF-α gene expression; [7]): 1.41 fold
TNF-α expression level compared to the control group (TNF-α gene expression; HMC3, 1 μg/ml + 10 ng/ml IFN-ɣ): 0.82 fold
Effect on SH-SY5Y cell viability (SH-SY5Y cell): no effect
IL-1β expression level compared to the control group (IL-1β gene expression; [6]): 1.64 fold
IL-1β expression level compared to the control group (IL-1β gene expression; [7]): 3.21 fold
IL-1β expression level compared to the control group (IL-1β gene expression; HMC3, 1 μg/ml + 10 ng/ml IFN-ɣ): 1.83 fold
CD11b antibody levels (positive gate V-R) (CD11b; [7]): 42.4%
CD11b antibody levels (positive gate V-R) (CD11b; HMC3, 1 μg/ml + 10 ng/ml IFN-ɣ): 23%
